Assay [1] has as its system U87MG glioma cells expressing LacZ. Kind of assay: In vivo combination therapy with temozolomide, orthotopic brain tumor model. The following applies: survival measured up to 90 days.
Experimental: On the 6th days after transplantation of U87MG glioma cells expressing LacZ, the F cells prepared in Preparation Example 2 were suspended in a Plasma Solution A, followed by centrifugation at 500×g for 5 minutes. The supernatant was discarded, and the washing procedure was repeated twice. Then, the cell suspension was prepared to have a concentration of 3×10^5/6 μl. The cell suspension was transplanted at a rate of 0.3 μl/min at the brain coordinates of AP=+0.5 mm, ML=−1.8 mm, and DV=−3 mm. From the next day after the cell transplantation, 5-FC (15 mg/ml physiological saline) was intraperitoneally injected at a dose of 500 mg/kg for one week. […] On 28th day, brain tissues were obtained from 8 animals in each animal group and X-gal staining was performed in the same manner as in Example 2 to measure the size of brain tumor.
The next assay relates to U87/GFP. Kind of assay: In vitro combination therapy of F cells + 5-FC with irinotecan (isobologram). Type of assay: cell-based. Conditions: 144 h; U87/GFP co-cultured with F cells (MSC/CD), 6 days; read-out: IC50 values obtained by treatment alone.

Each structure is given as a SMILES string.

Experimental for U87/GFP: 10,000 U87/GFP and 10,000 F cells (MSC/CD) were cultured in a 12-well plate. From the next day, the cells were treated with Irinotecan (Sigma) at a concentration of 0 to 30 μM and the prodrug 5-FC at a concentration of 0 to 300 μM, and cultured for 6 days while replacing with a new medium containing the drug once every two days. On the 7th day, the culture solution was removed, 200 μl of 1× passive lysis buffer was then added to each well, and each well was allowed to stand at 4° C. for 10 minutes. The cell lysate was collected and centrifuged at 12,000 rpm for 5 minutes to obtain supernatant. 100 μl of the supernatant was transferred to a black 96-well plate in which light is blocked, and the intensity of fluorescence was measured under conditions of excitation 488 nm and emission 530 nm using a fluorimeter (GEMINI EM).

Regarding `Cn1nnc2c(C(N)=O)ncn2c1=O` [temozolomide], in assay [1], the median survival stood at 42 days. What is called IC50 is the point on the concentration scale where inhibition reaches its midpoint. As for `CCc1c2c(nc3ccc(OC(=O)N4CCC(N5CCCCC5)CC4)cc13)-c1cc3c(c(=O)n1C2)COC(=O)[C@]3(O)CC` [irinotecan], the IC50 in the assay with U87/GFP is 3.2 µM.

Take `Nc1nc(=O)[nH]cc1F` [5-FC, 5-fluorocytosine]: the IC50 in the assay with U87/GFP was found to be 73.6 µM.

The record behind these values is patent US20240360417A1, “CELL THERAPEUTIC AGENT FOR CANCER TREATMENT AND COMBINATION THERAPY WITH SAME” (Cell&Brain Co., Ltd, priority 2015, published 2024).
